Reference: ChEMBL document CHEMBL3112495, “Diphenylpyridylethanamine (DPPE)-based aminoheterocycles as cholesteryl ester transfer protein inhibitors” (Bioorg Med Chem Lett, 2014)

Columns and labels:
Cytochrome P450 1A2 = molecular target: T1, Cytochrome P450 1A2 (Homo sapiens, UniProt P05177); assay: Inhibition of CYP1A2 (unknown origin); assay type: ADME
T1 sequence (P05177 whole entry): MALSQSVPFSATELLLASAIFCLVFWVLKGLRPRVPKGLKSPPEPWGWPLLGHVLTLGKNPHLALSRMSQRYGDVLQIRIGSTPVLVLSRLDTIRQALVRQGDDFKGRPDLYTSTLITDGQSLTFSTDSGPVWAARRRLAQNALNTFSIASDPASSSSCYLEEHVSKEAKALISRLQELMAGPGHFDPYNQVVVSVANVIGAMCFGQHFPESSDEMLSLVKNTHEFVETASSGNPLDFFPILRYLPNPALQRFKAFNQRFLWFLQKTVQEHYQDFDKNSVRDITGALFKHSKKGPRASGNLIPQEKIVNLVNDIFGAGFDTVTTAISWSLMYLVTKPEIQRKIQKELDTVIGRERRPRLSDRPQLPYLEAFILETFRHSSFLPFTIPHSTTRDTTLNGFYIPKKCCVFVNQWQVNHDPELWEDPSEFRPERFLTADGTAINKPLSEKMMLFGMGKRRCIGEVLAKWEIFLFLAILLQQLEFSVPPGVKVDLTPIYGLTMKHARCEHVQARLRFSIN

[1] = Metabolic stability of the compound in mouse liver microsomes assessed as compound remaining after 10 mins; assay type: ADME, Microsome; details: read-out: Stability
[2] = molecular target: T2, Nuclear receptor subfamily 1 group I member 2 (Homo sapiens, UniProt O75469); assay: Activation of PXR (unknown origin)
T2 sequence (O75469 whole entry): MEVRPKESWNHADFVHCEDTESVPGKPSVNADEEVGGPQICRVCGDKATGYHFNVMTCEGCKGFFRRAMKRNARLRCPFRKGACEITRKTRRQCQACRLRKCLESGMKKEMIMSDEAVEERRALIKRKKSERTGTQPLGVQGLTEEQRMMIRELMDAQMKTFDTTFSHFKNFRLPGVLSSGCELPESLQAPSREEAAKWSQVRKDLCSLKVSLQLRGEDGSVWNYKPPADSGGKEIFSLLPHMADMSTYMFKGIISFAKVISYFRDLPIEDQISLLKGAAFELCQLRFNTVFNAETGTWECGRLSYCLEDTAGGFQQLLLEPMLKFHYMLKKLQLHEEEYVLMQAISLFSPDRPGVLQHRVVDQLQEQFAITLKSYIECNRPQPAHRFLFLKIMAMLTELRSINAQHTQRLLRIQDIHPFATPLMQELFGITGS

Cytochrome P450 3A4 [3] = molecular target: T3, Cytochrome P450 3A4 (Homo sapiens, UniProt P08684); assay: Inhibition of CYP3A4 (unknown origin) using benzyloxyresorufin as substrate; assay type: ADME
T3 sequence (P08684 whole entry): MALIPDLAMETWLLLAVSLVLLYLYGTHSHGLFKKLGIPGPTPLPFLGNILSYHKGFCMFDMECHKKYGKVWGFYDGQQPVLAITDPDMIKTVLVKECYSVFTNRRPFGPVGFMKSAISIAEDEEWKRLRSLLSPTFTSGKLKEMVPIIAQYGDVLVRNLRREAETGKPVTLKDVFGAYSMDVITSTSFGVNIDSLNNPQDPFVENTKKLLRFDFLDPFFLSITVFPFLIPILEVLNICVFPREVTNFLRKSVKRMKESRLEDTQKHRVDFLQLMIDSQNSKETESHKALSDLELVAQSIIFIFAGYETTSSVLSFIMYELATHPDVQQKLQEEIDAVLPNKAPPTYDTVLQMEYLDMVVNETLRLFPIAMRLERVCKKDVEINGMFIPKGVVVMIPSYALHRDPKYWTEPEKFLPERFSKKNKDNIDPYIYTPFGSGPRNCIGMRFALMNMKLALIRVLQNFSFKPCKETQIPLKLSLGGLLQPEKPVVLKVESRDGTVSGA

Cytochrome P450 3A4 [4] = molecular target: T3, Cytochrome P450 3A4; assay: Inhibition of CYP3A4 (unknown origin) using 7-benzyloxy-4-trifluoromethylcoumarin as substrate; assay type: ADME
PXR = molecular target: T4, PXR (Homo sapiens, UniProt O75469); assay: Activation of PXR (unknown origin) relative to rifampicin
T4 sequence (O75469 whole entry): T2 sequence (O75469 whole entry)

[5] = Metabolic stability of the compound in rat liver microsomes assessed as compound remaining after 10 mins; assay type: ADME; details: read-out: Stability
Cytochrome P450 2C9 = Cytochrome P450 2C9 (Homo sapiens, UniProt P11712); assay: Inhibition of CYP2C9 (unknown origin); assay type: ADME
Chain of Cytochrome P450 2C9 (P11712 whole entry): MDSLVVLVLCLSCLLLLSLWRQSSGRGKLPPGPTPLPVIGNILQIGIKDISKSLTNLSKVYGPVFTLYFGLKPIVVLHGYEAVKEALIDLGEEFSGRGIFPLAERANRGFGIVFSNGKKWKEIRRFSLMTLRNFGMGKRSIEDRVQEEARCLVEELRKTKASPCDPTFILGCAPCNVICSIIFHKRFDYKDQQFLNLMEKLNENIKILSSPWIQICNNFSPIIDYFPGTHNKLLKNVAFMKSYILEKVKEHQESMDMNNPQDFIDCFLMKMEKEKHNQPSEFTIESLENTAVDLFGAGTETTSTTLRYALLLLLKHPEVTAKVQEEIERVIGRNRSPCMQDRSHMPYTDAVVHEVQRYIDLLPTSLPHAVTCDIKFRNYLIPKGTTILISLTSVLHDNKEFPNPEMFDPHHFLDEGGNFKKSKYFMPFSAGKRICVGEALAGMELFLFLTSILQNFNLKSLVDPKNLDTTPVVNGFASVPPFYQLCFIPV

Cytochrome P450 2C19 = Cytochrome P450 2C19 (Homo sapiens, UniProt P33261); assay: Inhibition of CYP2C19 (unknown origin); assay type: ADME
Chain of Cytochrome P450 2C19 (P33261 whole entry): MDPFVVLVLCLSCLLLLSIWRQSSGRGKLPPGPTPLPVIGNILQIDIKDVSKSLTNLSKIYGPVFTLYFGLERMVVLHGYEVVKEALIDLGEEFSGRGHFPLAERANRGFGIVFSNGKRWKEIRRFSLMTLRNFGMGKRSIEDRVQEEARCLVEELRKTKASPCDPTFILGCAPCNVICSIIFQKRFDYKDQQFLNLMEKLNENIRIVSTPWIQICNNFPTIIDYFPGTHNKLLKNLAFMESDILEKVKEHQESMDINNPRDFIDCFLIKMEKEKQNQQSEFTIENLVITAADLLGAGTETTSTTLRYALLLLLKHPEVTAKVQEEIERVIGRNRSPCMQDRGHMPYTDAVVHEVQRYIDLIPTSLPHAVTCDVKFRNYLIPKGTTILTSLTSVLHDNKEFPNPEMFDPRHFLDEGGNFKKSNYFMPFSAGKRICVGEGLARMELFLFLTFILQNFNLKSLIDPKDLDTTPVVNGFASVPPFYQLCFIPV

Cytochrome P450 2D6 = Cytochrome P450 2D6 (Homo sapiens, UniProt P10635); assay: Inhibition of CYP2D6 (unknown origin); assay type: ADME
Chain of Cytochrome P450 2D6 (P10635 whole entry): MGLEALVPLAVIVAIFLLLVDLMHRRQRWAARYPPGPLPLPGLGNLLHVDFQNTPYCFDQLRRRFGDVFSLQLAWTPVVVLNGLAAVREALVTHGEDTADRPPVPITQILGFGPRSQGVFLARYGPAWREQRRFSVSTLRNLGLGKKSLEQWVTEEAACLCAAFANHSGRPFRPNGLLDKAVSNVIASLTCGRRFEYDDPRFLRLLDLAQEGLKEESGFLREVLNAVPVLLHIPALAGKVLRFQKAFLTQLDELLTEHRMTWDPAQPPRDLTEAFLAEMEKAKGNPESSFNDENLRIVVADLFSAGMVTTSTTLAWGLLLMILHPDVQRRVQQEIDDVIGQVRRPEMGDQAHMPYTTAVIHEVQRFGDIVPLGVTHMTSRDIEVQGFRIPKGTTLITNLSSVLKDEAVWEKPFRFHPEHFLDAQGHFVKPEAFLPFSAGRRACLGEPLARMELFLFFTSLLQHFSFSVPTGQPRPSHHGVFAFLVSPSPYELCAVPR

[6] = Metabolic stability of the compound in human liver microsomes assessed as compound remaining after 10 mins; assay type: ADME; details: read-out: Stability
[7] = molecular target: T5, Cholesteryl ester transfer protein (Homo sapiens, UniProt P11597); assay: Inhibition of CETP in human whole plasma using [3H]-CE/HDL after 10 mins
T5 sequence (P11597 whole entry): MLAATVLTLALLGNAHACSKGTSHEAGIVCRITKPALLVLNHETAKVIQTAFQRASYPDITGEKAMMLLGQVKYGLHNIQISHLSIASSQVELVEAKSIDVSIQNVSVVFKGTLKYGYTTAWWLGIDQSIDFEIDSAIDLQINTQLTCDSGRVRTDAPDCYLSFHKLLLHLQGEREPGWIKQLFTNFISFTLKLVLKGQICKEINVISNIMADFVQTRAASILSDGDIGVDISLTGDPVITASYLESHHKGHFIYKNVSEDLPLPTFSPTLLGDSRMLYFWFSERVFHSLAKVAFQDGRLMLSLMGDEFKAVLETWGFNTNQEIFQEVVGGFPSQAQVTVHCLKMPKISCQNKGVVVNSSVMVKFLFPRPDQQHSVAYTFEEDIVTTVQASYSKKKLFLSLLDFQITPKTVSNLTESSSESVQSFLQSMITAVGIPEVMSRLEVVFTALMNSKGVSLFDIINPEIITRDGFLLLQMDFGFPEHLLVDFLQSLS

[8] = molecular target: T5, Cholesteryl ester transfer protein; assay: Inhibition of human recombinant CETP using [3H]-CE/HDL by scintillation proximity assay

SMILES: O=C(NC1CCCC1)N[C@@](Cc1ccccc1)(c1cc(F)cc(OC(F)(F)C(F)F)c1)c1ccc(Cl)cn1
- IC50 (Cytochrome P450 1A2): 40 µM
- remaining at 10 min [1]: 4%
- EC60 [2]: 0.7 µM
- IC50 (Cytochrome P450 3A4 [3]): 3.6 µM
- IC50 (Cytochrome P450 3A4 [4]): 8.8 µM
- Emax (PXR): 88%
- remaining at 10 min [5]: 12%
- IC50 (Cytochrome P450 2C9): 4.4 µM
- IC50 (Cytochrome P450 2C19): 17 µM
- IC50 (Cytochrome P450 2D6): 15 µM
- remaining at 10 min [6]: 10%

SMILES: Fc1cc(OC(F)(F)C(F)F)cc([C@@](Cc2ccccc2)(Nc2nc3c(F)cc(F)cc3[nH]2)c2ccc(Cl)cn2)c1
- IC50 (Cytochrome P450 1A2): 40 µM
- remaining at 10 min [1]: 72%
- IC50 [7]: 6.4 µM
- EC60 [2]: > 5.6 µM
- IC50 (Cytochrome P450 3A4 [3]): 19 µM
- IC50 (Cytochrome P450 3A4 [4]): 24 µM
- Emax (PXR): 25%
- IC50 [8]: 40 nM
- remaining at 10 min [5]: 100%
- IC50 (Cytochrome P450 2C9): 15 µM
- IC50 (Cytochrome P450 2C19): 3 µM
- IC50 (Cytochrome P450 2D6): 40 µM
- remaining at 10 min [6]: 68%

SMILES: Fc1cc(OC(F)(F)C(F)F)cc([C@@](Cc2ccccc2)(Nc2nc3cc(F)ccc3[nH]2)c2ccc(Cl)cn2)c1
- IC50 (Cytochrome P450 1A2): 40 µM
- remaining at 10 min [1]: 62%
- IC50 [7]: 9.5 µM
- EC60 [2]: > 17 µM
- IC50 (Cytochrome P450 3A4 [3]): 40 µM
- IC50 (Cytochrome P450 3A4 [4]): 32 µM
- Emax (PXR): 56%
- IC50 [8]: 50 nM
- remaining at 10 min [5]: 95%
- IC50 (Cytochrome P450 2C9): 40 µM
- IC50 (Cytochrome P450 2C19): 2 µM
- IC50 (Cytochrome P450 2D6): 29 µM
- remaining at 10 min [6]: 56%

SMILES: Fc1cc(OC(F)(F)C(F)F)cc([C@@](Cc2ccccc2)(Nc2nc3ccccc3[nH]2)c2ccc(Cl)cn2)c1
- IC50 (Cytochrome P450 1A2): 40 µM
- IC50 [7]: 15 µM
- EC60 [2]: > 17 µM
- IC50 (Cytochrome P450 3A4 [3]): 13 µM
- IC50 (Cytochrome P450 3A4 [4]): 40 µM
- Emax (PXR): 70%
- IC50 [8]: 90 nM
- IC50 (Cytochrome P450 2C9): 19 µM
- IC50 (Cytochrome P450 2C19): 3 µM
- IC50 (Cytochrome P450 2D6): 40 µM

SMILES: Cc1sc(N[C@](Cc2ccccc2)(c2cc(F)cc(OC(F)(F)C(F)F)c2)c2ccc(Cl)cn2)nc1C(F)(F)F
- IC50 (Cytochrome P450 1A2): > 40 µM
- remaining at 10 min [1]: 59%
- IC50 [7]: 3.2 µM
- EC60 [2]: > 5.6 µM
- IC50 (Cytochrome P450 3A4 [3]): > 40 µM
- IC50 (Cytochrome P450 3A4 [4]): > 40 µM
- Emax (PXR): 44%
- IC50 [8]: 20 nM
- remaining at 10 min [5]: 55%
- IC50 (Cytochrome P450 2C9): > 40 µM
- IC50 (Cytochrome P450 2C19): > 40 µM
- IC50 (Cytochrome P450 2D6): > 40 µM
- remaining at 10 min [6]: 82%

SMILES: Fc1cc(OC(F)(F)C(F)F)cc([C@@](Cc2ccccc2)(Nc2nc(C(F)(F)F)cs2)c2ccc(Cl)cn2)c1
- IC50 (Cytochrome P450 1A2): 40 µM
- remaining at 10 min [1]: 78%
- IC50 [7]: 14.8 µM
- EC60 [2]: > 17 µM
- IC50 (Cytochrome P450 3A4 [3]): 40 µM
- IC50 (Cytochrome P450 3A4 [4]): 40 µM
- Emax (PXR): 45%
- IC50 [8]: 220 nM
- remaining at 10 min [5]: 83%
- IC50 (Cytochrome P450 2C9): 40 µM
- IC50 (Cytochrome P450 2C19): 13 µM
- IC50 (Cytochrome P450 2D6): 40 µM
- remaining at 10 min [6]: 98%

SMILES: Fc1cc(OC(F)(F)C(F)F)cc([C@@](Cc2ccccc2)(Nc2nc3c(s2)CCCC3)c2ccc(Cl)cn2)c1
- IC50 [7]: 4.2 µM
- IC50 [8]: 20 nM

SMILES: Fc1cc(OC(F)(F)C(F)F)cc([C@@](Cc2ccccc2)(Nc2nc(C(F)(F)F)c(Br)s2)c2ccc(Cl)cn2)c1
- IC50 (Cytochrome P450 1A2): > 40 µM
- remaining at 10 min [1]: 100%
- IC50 [7]: 6.5 µM
- EC60 [2]: > 5.6 µM
- IC50 (Cytochrome P450 3A4 [3]): > 40 µM
- IC50 (Cytochrome P450 3A4 [4]): > 40 µM
- Emax (PXR): 37%
- IC50 [8]: 40 nM
- remaining at 10 min [5]: 95%
- IC50 (Cytochrome P450 2C9): > 40 µM
- IC50 (Cytochrome P450 2C19): > 40 µM
- IC50 (Cytochrome P450 2D6): > 40 µM
- remaining at 10 min [6]: 100%

SMILES: Cc1nc(N[C@](Cc2ccccc2)(c2cc(F)cc(OC(F)(F)C(F)F)c2)c2ccc(Cl)cn2)sc1C
- IC50 [7]: 5.5 µM
- IC50 [8]: 40 nM

SMILES: Fc1cc(C(F)(F)F)cc([C@](Cc2ccccc2)(Nc2nc3c(s2)CCCC3)c2ccc(Cl)cn2)c1
- IC50 [8]: 10800 nM

SMILES: Cc1nc(N[C@@](Cc2ccccc2)(c2cc(F)cc(C(F)(F)F)c2)c2ccc(Cl)cn2)sc1C
- IC50 [8]: 12200 nM

SMILES: Cc1nc(N[C@](Cc2ccccc2)(c2cc(F)cc(C(F)(F)F)c2)c2ccc(Cl)cn2)sc1C
- IC50 [7]: 17.3 µM
- IC50 [8]: 40 nM

SMILES: COC(=O)c1sc(NC(Cc2ccccc2)(c2cc(F)cc(C(F)(F)F)c2)c2ccc(Cl)cn2)nc1C (configuration not stated)
- IC50 [8]: 32000 nM

SMILES: Fc1cc(C(F)(F)F)cc(C(Cc2ccccc2)(Nc2nc(C(F)(F)F)c(Br)s2)c2ccc(Cl)cn2)c1 (configuration not stated)
- IC50 [8]: 100 nM

SMILES: Fc1cc(C(F)(F)F)cc(C(Cc2ccccc2)(Nc2nc(C(F)(F)F)cs2)c2ccc(Cl)cn2)c1 (configuration not stated)
- IC50 [8]: 1200 nM

SMILES: CC(C)(C)c1csc(NC(Cc2ccccc2)(c2cc(F)cc(C(F)(F)F)c2)c2ccc(Cl)cn2)n1 (configuration not stated)
- IC50 [8]: 7500 nM

SMILES: CCc1csc(NC(Cc2ccccc2)(c2cc(F)cc(C(F)(F)F)c2)c2ccc(Cl)cn2)n1 (configuration not stated)
- IC50 [8]: 700 nM

SMILES: Cc1cnc(NC(Cc2ccccc2)(c2cc(F)cc(C(F)(F)F)c2)c2ccc(Cl)cn2)s1 (configuration not stated)
- IC50 [8]: 1100 nM

SMILES: Cn1nnc(NC(Cc2ccccc2)(c2cc(F)cc(C(F)(F)F)c2)c2ccc(Cl)cn2)n1 (configuration not stated)
- IC50 [8]: 11000 nM

SMILES: Fc1cc(C(F)(F)F)cc(C(Cc2ccccc2)(Nc2nc3ccccc3s2)c2ccc(Cl)cn2)c1 (configuration not stated)
- IC50 [7]: 23 µM
- IC50 [8]: 500 nM

SMILES: Fc1cc(C(F)(F)F)cc(C(Cc2ccccc2)(Nc2nc3ccccc3o2)c2ccc(Cl)cn2)c1 (configuration not stated)
- IC50 [8]: 2000 nM

SMILES: Fc1cc(C(F)(F)F)cc(C(Cc2ccccc2)(Nc2nc3ccccc3[nH]2)c2ccc(Cl)cn2)c1 (configuration not stated)
- IC50 [7]: 19.6 µM
- IC50 [8]: 200 nM

SMILES: Fc1cc(C(F)(F)F)cc(C(Cc2ccccc2)(Nc2nnc(-c3ccccc3)[nH]2)c2ccc(Cl)cn2)c1 (configuration not stated)
- IC50 [8]: > 32000 nM

SMILES: Fc1cc(C(F)(F)F)cc(C(Cc2ccccc2)(Nc2ncc(-c3ccccc3)o2)c2ccc(Cl)cn2)c1 (configuration not stated)
- IC50 [8]: 12000 nM

SMILES: Fc1cc(C(F)(F)F)cc(C(Cc2ccccc2)(Nc2nc3c(s2)CCCC3)c2ccc(Cl)cn2)c1 (racemic)
- IC50 [7]: 20.2 µM
- IC50 [8]: 200 nM

SMILES: Cc1nc(NC(Cc2ccccc2)(c2cc(F)cc(C(F)(F)F)c2)c2ccc(Cl)cn2)sc1C (racemic)
- IC50 [7]: 29.5 µM
- IC50 [8]: 400 nM
